Measurements taken from patent publication US20220031596A1, “ANTI-AGING AGENT AND ANTI-AGING METHOD” (priority 2018, published 2022).

How the values were obtained:
[1] = tested on: cortisol concentration in the plasma; experiment: Evaluation of cortisol secretion promoting effect (plasma cortisol, 24-week oral ingestion); format: in vivo, human; details: for cortisol concentration in the plasma, 0 weeks (before ingestion) / cortisol concentration in the plasma, 24 weeks (after ingestion) / cortisol concentration in the plasma, Change rate (24 weeks - 0 weeks): High Dose Group (200 mg/daily, oral), mean±SD; for cortisol concentration in the plasma, 0 weeks (before ingestion): baseline
Procedure: In order to confirm a change in the cortisol quantity before and after ingestion of the nicotinamide mononucleotide, a test was conducted on healthy males and females aged 50 to 70 years.
As a sample of Working Example 11, a capsule formulation containing the nicotinamide mononucleotide and starch (200 mg of the nicotinamide mononucleotide in 4 capsules) (manufactured by SHINKOWA PHARMACEUTICAL Co., Ltd.) was used.
(§1) Each group consisting of five healthy males and females aged 50 to 70 years in an unbiased age group ingested the above high dose capsule formulation once a day by 4 capsules for 24 weeks (total 10 subjects, 200 mg/daily ingestion). In order to conduct appropriate evaluations, those who had been regularly using medical products for chronic diseases, those who had been consuming healthy foods that may affect clinical research, and those who were currently participating in other clinical researches or clinical trials or had participated in other clinical researches or clinical trials within the last three months were excluded from the subject for the evaluation. The capsule formulations were ingested at 10 am (between meals and fasting state) together with water or lukewarm water (oral administration).
Measurement of the cortisol quantity in the plasma was conducted by requesting the measurement to an external public organization according to a usual method. FIGS. 22a to 22c indicate transitions of the cortisol concentration […] in the plasma for 24 weeks. FIG. 22a represents the transitions of the whole subjects; FIG. 22b represents the transitions of the male subjects; FIG. 22c represents the transitions of the female subjects. Further, FIGS. 23a to 23c indicate change rates (%) of the blood cortisol concentration up to 24 weeks when the nicotinamide mononucleotide was orally administered to the subjects for 24 weeks. FIG. 23a represents the change rates of the whole subjects; FIG. 23b represents the change rates of the male subjects; FIG. 23c represents the change rates of the female subjects. Further, Table 10 indicates the numerical values of the cortisol concentration (μg/dl) in the plasma before the ingestion of the nicotinamide mononucleotide (0 weeks) and after the ingestion of the nicotinamide mononucleotide (24 weeks). Note that the numerical values represent mean values±standard deviation.

[2] = tested on: parathyroid hormone concentration in the plasma; experiment: Evaluation of parathyroid hormone secretion promoting effect (plasma parathyroid hormone, 24-week oral ingestion); format: in vivo, human; details: for parathyroid hormone concentration in the plasma, 0 weeks (before ingestion): baseline; for parathyroid hormone concentration in the plasma, 0 weeks (before ingestion) / parathyroid hormone concentration in the plasma, 24 weeks (after ingestion) / parathyroid hormone concentration in the plasma, Change rate (24 weeks - 0 weeks): mean±SD
Procedure: In order to confirm a change in the parathyroid hormone quantity before and after ingestion of the nicotinamide mononucleotide, a test was conducted on healthy males and females aged 50 to 70 years.
As a sample of Working Example 6, a capsule formulation containing the nicotinamide mononucleotide and starch (100 mg (low dose) and 200 mg (high dose) of the nicotinamide mononucleotide in 4 capsules) (manufactured by SHINKOWA PHARMACEUTICAL Co., Ltd.) was used.
as §1, with “above low dose capsule formulation once a day by 4 capsules for 24 weeks (total 10 subjects, a low dose group: 100 mg/daily ingestion). On the other hand, each group consisting of five healthy males and females aged 50 to 70 years in the unbiased age group ingested the above” for “above”, “subjects, a high dose group:” for “subjects,”
Measurement of the parathyroid hormone quantity in the plasma was conducted by requesting the measurement to an external public organization according to a usual method. FIGS. 12a to 12c indicate transitions of the parathyroid hormone concentration (pg/ml) in the plasma for 24 weeks. FIG. 12a represents the transitions of the whole subjects; FIG. 12b represents the transitions of the male subjects; FIG. 12c represents the transitions of the female subjects. Further, FIGS. 13a to 13c indicate change rates (%) of the blood parathyroid hormone concentration up to 24 weeks when the nicotinamide mononucleotide was orally administered to the subjects for 24 weeks. FIG. 13a represents the change rates of the whole subjects; FIG. 13b represents the change rates of the male subjects; FIG. 13c represents the change rates of the female subjects. Further, Table 6 indicates the numerical values of the parathyroid hormone concentration (pg/ml) in the plasma before the ingestion of the nicotinamide mononucleotide (0 weeks) and after the ingestion of the nicotinamide mononucleotide (24 weeks). Note that the numerical values represent mean values±standard deviation.

[3] = Female, High Dose Group (200 mg/daily, oral)
[4] = Female, Low Dose Group (100 mg/daily, oral)
[5] = Male, High Dose Group (200 mg/daily, oral)
[6] = Male, Low Dose Group (100 mg/daily, oral)
[7] = Whole Subjects, High Dose Group (200 mg/daily, oral)
[8] = Whole Subjects, Low Dose Group (100 mg/daily, oral)

## NC(=O)c1ccc[n+]([C@@H]2O[C@H](COP(=O)([O-])O)[C@@H](O)[C@H]2O)c1 [nicotinamide mononucleotide]
[1]; Female
  cortisol concentration in the plasma, 0 weeks (before ingestion): 6.82 ± 1.20 µg/dL
  cortisol concentration in the plasma, 24 weeks (after ingestion): 10.56 ± 5.92 µg/dL
  cortisol concentration in the plasma, Change rate (24 weeks - 0 weeks): 3.74 ± 6.16 µg/dL
[1]; Male
  cortisol concentration in the plasma, 0 weeks (before ingestion): 7.97 ± 2.50 µg/dL
  cortisol concentration in the plasma, 24 weeks (after ingestion): 10.30 ± 4.47 µg/dL
  cortisol concentration in the plasma, Change rate (24 weeks - 0 weeks): 2.33 ± 3.38 µg/dL
[1]; Whole Subjects
  cortisol concentration in the plasma, 0 weeks (before ingestion): 7.40 ± 1.94 µg/dL
  cortisol concentration in the plasma, 24 weeks (after ingestion): 10.43 ± 4.95 µg/dL
  cortisol concentration in the plasma, Change rate (24 weeks - 0 weeks): 3.04 ± 4.74 µg/dL
[1]; oral, 200 mg/daily, 24 weeks, FIGS. 22a-22c, 23a-23c
  cortisol concentrations in the plasma, effect of ingestion (in words): increased
[2]; [3]
  parathyroid hormone concentration in the plasma, 0 weeks (before ingestion): 384 ± 88 pg/mL
  parathyroid hormone concentration in the plasma, 24 weeks (after ingestion): 448 ± 114 pg/mL
  parathyroid hormone concentration in the plasma, Change rate (24 weeks - 0 weeks): 64 ± 65 pg/mL
[2]; [4]
  parathyroid hormone concentration in the plasma, 0 weeks (before ingestion): 328 ± 45 pg/mL
  parathyroid hormone concentration in the plasma, 24 weeks (after ingestion): 394 ± 63 pg/mL
  parathyroid hormone concentration in the plasma, Change rate (24 weeks - 0 weeks): 66 ± 34 pg/mL
[2]; [5]
  parathyroid hormone concentration in the plasma, 0 weeks (before ingestion): 410 ± 108 pg/mL
  parathyroid hormone concentration in the plasma, 24 weeks (after ingestion): 438 ± 168 pg/mL
  parathyroid hormone concentration in the plasma, Change rate (24 weeks - 0 weeks): 28 ± 77 pg/mL
[2]; [6]
  parathyroid hormone concentration in the plasma, 0 weeks (before ingestion): 344 ± 69 pg/mL
  parathyroid hormone concentration in the plasma, 24 weeks (after ingestion): 386 ± 108 pg/mL
  parathyroid hormone concentration in the plasma, Change rate (24 weeks - 0 weeks): 42 ± 73 pg/mL
[2]; [7]
  parathyroid hormone concentration in the plasma, 0 weeks (before ingestion): 397 ± 94 pg/mL
  parathyroid hormone concentration in the plasma, 24 weeks (after ingestion): 443 ± 135 pg/mL
  parathyroid hormone concentration in the plasma, Change rate (24 weeks - 0 weeks): 46 ± 70 pg/mL
[2]; [8]
  parathyroid hormone concentration in the plasma, 0 weeks (before ingestion): 336 ± 56 pg/mL
  parathyroid hormone concentration in the plasma, 24 weeks (after ingestion): 390 ± 84 pg/mL
  parathyroid hormone concentration in the plasma, Change rate (24 weeks - 0 weeks): 54 ± 55 pg/mL
[2]; oral, 100 or 200 mg/daily, 24 weeks, FIGS. 12a-12c, 13a-13c
  parathyroid hormone concentrations in the plasma, effect of ingestion (in words): increased
